Data on 25 compounds can be found in the NIST ThermoML archive (doi:10.1016/j.fluid.2006.07.015).

The nature of the data set: activity coefficient (dimensionless); of the first substance listed, at infinite dilution; xn = mol fraction of the nth substance listed. The following applies: 101 kPa, Liquid, Chromatography, x1 = 0.

Numbers after ± are expanded uncertainties.

As to `c1ccccc1` [benzene] + CCCCCCCCCCCCCCCCCCC(CCCCCCCCCCCCCCCCCC)CCCCC(CCCCCCCCCCCCCCCCCC)CCCCCCCCCCCCCCCCCC, the activity coefficient was found to be 0.269 ± 0.036 (373.15 K); 0.266 ± 0.036 (388.15 K); 0.263 ± 0.036 (403.15 K); 0.26 ± 0.036 (418.15 K); 0.258 ± 0.036 (433.15 K).
For `CCCCc1ccccc1` [butylbenzene] + CCCCCCCCCCCCCCCCCCC(CCCCCCCCCCCCCCCCCC)CCCCC(CCCCCCCCCCCCCCCCCC)CCCCCCCCCCCCCCCCCC, the activity coefficient (373.15 K) came to 0.357 ± 0.035; the activity coefficient (388.15 K) is 0.362 ± 0.035; the activity coefficient (403.15 K) is 0.359 ± 0.035; the activity coefficient (418.15 K) came to 0.358 ± 0.035; the activity coefficient (433.15 K) came out at 0.354 ± 0.035.
The matching figures for `C[C@@H]1CCCC[C@@H]1C` [cis-1,2-dimethylcyclohexane] + CCCCCCCCCCCCCCCCCCC(CCCCCCCCCCCCCCCCCC)CCCCC(CCCCCCCCCCCCCCCCCC)CCCCCCCCCCCCCCCCCC: 0.271 ± 0.036, 0.277 ± 0.036, 0.279 ± 0.036, 0.28 ± 0.036 and 0.285 ± 0.036.
For `C[C@H]1CC[C@@H](C)CC1` [cis-1,4-dimethylcyclohexane] + CCCCCCCCCCCCCCCCCCC(CCCCCCCCCCCCCCCCCC)CCCCC(CCCCCCCCCCCCCCCCCC)CCCCCCCCCCCCCCCCCC, in that order: 0.287 ± 0.036, 0.294 ± 0.036, 0.296 ± 0.036, 0.296 ± 0.036 and 0.3 ± 0.036.
In the case of `C1CC[C@H]2CCCC[C@H]2C1` [cis-decahydronaphthalene] + CCCCCCCCCCCCCCCCCCC(CCCCCCCCCCCCCCCCCC)CCCCC(CCCCCCCCCCCCCCCCCC)CCCCCCCCCCCCCCCCCC, the activity coefficient reads like this: (373.15 K) 0.268 ± 0.036; (388.15 K) 0.278 ± 0.036; (403.15 K) 0.28 ± 0.036; (418.15 K) 0.275 ± 0.036; (433.15 K) 0.279 ± 0.036.
Take `C1CCCCCCCCC1` [cyclodecane] + CCCCCCCCCCCCCCCCCCC(CCCCCCCCCCCCCCCCCC)CCCCC(CCCCCCCCCCCCCCCCCC)CCCCCCCCCCCCCCCCCC: the activity coefficient (373.15 K) was 0.269 ± 0.036; the activity coefficient (388.15 K) was 0.281 ± 0.036; the activity coefficient (403.15 K) is 0.283 ± 0.036; the activity coefficient (418.15 K) was determined as 0.287 ± 0.036; the activity coefficient (433.15 K) was found to be 0.288 ± 0.036.
For `C1CCCCCC1` [cycloheptane] + CCCCCCCCCCCCCCCCCCC(CCCCCCCCCCCCCCCCCC)CCCCC(CCCCCCCCCCCCCCCCCC)CCCCCCCCCCCCCCCCCC, in that order: 0.252 ± 0.036, 0.257 ± 0.036, 0.256 ± 0.036, 0.253 ± 0.036 and 0.255 ± 0.036.
The matching figures for `C1CCCCC1` [cyclohexane] + CCCCCCCCCCCCCCCCCCC(CCCCCCCCCCCCCCCCCC)CCCCC(CCCCCCCCCCCCCCCCCC)CCCCCCCCCCCCCCCCCC: 0.25 ± 0.036, 0.251 ± 0.036, 0.246 ± 0.036, 0.245 ± 0.036 and 0.247 ± 0.036.
In the case of `C1=CCCCC1` [cyclohexene] + CCCCCCCCCCCCCCCCCCC(CCCCCCCCCCCCCCCCCC)CCCCC(CCCCCCCCCCCCCCCCCC)CCCCCCCCCCCCCCCCCC, the activity coefficient by setting is: (373.15 K) 0.239 ± 0.036; (388.15 K) 0.244 ± 0.036; (403.15 K) 0.243 ± 0.036; (418.15 K) 0.241 ± 0.036; (433.15 K) 0.243 ± 0.036.
As for `C1CCCCCCC1` [cyclooctane] + CCCCCCCCCCCCCCCCCCC(CCCCCCCCCCCCCCCCCC)CCCCC(CCCCCCCCCCCCCCCCCC)CCCCCCCCCCCCCCCCCC, the activity coefficient runs as follows: (373.15 K) 0.258 ± 0.036; (388.15 K) 0.264 ± 0.036; (403.15 K) 0.265 ± 0.036; (418.15 K) 0.262 ± 0.036; (433.15 K) 0.264 ± 0.036.
For the compound `CCCCCCCCCC` [decane] + CCCCCCCCCCCCCCCCCCC(CCCCCCCCCCCCCCCCCC)CCCCC(CCCCCCCCCCCCCCCCCC)CCCCCCCCCCCCCCCCCC, the activity coefficient by setting is: (373.15 K) 0.418 ± 0.034; (388.15 K) 0.42 ± 0.034; (403.15 K) 0.421 ± 0.034; (418.15 K) 0.423 ± 0.034; (433.15 K) 0.425 ± 0.034.
For the compound `CCCCCCCCCCCC` [dodecane] + CCCCCCCCCCCCCCCCCCC(CCCCCCCCCCCCCCCCCC)CCCCC(CCCCCCCCCCCCCCCCCC)CCCCCCCCCCCCCCCCCC, the activity coefficient runs as follows: (373.15 K) 0.456 ± 0.033; (388.15 K) 0.457 ± 0.033; (403.15 K) 0.459 ± 0.033; (418.15 K) 0.46 ± 0.033; (433.15 K) 0.462 ± 0.033.
For `CCc1ccccc1` [ethylbenzene] + CCCCCCCCCCCCCCCCCCC(CCCCCCCCCCCCCCCCCC)CCCCC(CCCCCCCCCCCCCCCCCC)CCCCCCCCCCCCCCCCCC, the activity coefficient was determined as 0.314 ± 0.035 (373.15 K); 0.315 ± 0.035 (388.15 K); 0.313 ± 0.035 (403.15 K); 0.304 ± 0.035 (418.15 K); 0.304 ± 0.035 (433.15 K).
`CCCCCCC` [heptane] + CCCCCCCCCCCCCCCCCCC(CCCCCCCCCCCCCCCCCC)CCCCC(CCCCCCCCCCCCCCCCCC)CCCCCCCCCCCCCCCCCC: the activity coefficient (373.15 K) was determined as 0.361 ± 0.035; the activity coefficient (388.15 K) worked out at 0.363 ± 0.035; the activity coefficient (403.15 K) is 0.365 ± 0.035; the activity coefficient (418.15 K) is 0.367 ± 0.034; the activity coefficient (433.15 K) was found to be 0.37 ± 0.03.
For the compound `C=CCCCC` [hex-1-ene] + CCCCCCCCCCCCCCCCCCC(CCCCCCCCCCCCCCCCCC)CCCCC(CCCCCCCCCCCCCCCCCC)CCCCCCCCCCCCCCCCCC, the activity coefficient reads like this: (373.15 K) 0.354 ± 0.035; (388.15 K) 0.355 ± 0.035; (403.15 K) 0.356 ± 0.035; (418.15 K) 0.357 ± 0.035; (433.15 K) 0.359 ± 0.035.
Turning to `CCCCCC` [hexane] + CCCCCCCCCCCCCCCCCCC(CCCCCCCCCCCCCCCCCC)CCCCC(CCCCCCCCCCCCCCCCCC)CCCCCCCCCCCCCCCCCC, the activity coefficient is 0.344 ± 0.035 (373.15 K); 0.346 ± 0.035 (388.15 K); 0.348 ± 0.035 (403.15 K); 0.351 ± 0.035 (418.15 K); 0.355 ± 0.035 (433.15 K).
`CCCCCCc1ccccc1` [hexylbenzene] + CCCCCCCCCCCCCCCCCCC(CCCCCCCCCCCCCCCCCC)CCCCC(CCCCCCCCCCCCCCCCCC)CCCCCCCCCCCCCCCCCC: the activity coefficient is 0.397 ± 0.034 (373.15 K); 0.405 ± 0.034 (388.15 K); 0.401 ± 0.034 (403.15 K); 0.404 ± 0.034 (418.15 K); 0.401 ± 0.034 (433.15 K).
`CC1CCCCC1` [methylcyclohexane] + CCCCCCCCCCCCCCCCCCC(CCCCCCCCCCCCCCCCCC)CCCCC(CCCCCCCCCCCCCCCCCC)CCCCCCCCCCCCCCCCCC: the activity coefficient reads like this: (373.15 K) 0.267 ± 0.036; (388.15 K) 0.273 ± 0.036; (403.15 K) 0.273 ± 0.036; (418.15 K) 0.272 ± 0.036; (433.15 K) 0.275 ± 0.036.
Turning to `c1ccc2ccccc2c1` [naphthalene] + CCCCCCCCCCCCCCCCCCC(CCCCCCCCCCCCCCCCCC)CCCCC(CCCCCCCCCCCCCCCCCC)CCCCCCCCCCCCCCCCCC, the activity coefficient was 0.384 ± 0.034 (373.15 K); 0.397 ± 0.034 (388.15 K); 0.4 ± 0.034 (403.15 K); 0.392 ± 0.034 (418.15 K); 0.386 ± 0.034 (433.15 K).
In the case of `CCCCCCCCC` [nonane] + CCCCCCCCCCCCCCCCCCC(CCCCCCCCCCCCCCCCCC)CCCCC(CCCCCCCCCCCCCCCCCC)CCCCCCCCCCCCCCCCCC, the activity coefficient (373.15 K) worked out at 0.399 ± 0.034; the activity coefficient (388.15 K) was 0.401 ± 0.034; the activity coefficient (403.15 K) came to 0.403 ± 0.034; the activity coefficient (418.15 K) turned out to be 0.404 ± 0.034; the activity coefficient (433.15 K) was found to be 0.406 ± 0.034.
As for `C=CCCCCCC` [oct-1-ene] + CCCCCCCCCCCCCCCCCCC(CCCCCCCCCCCCCCCCCC)CCCCC(CCCCCCCCCCCCCCCCCC)CCCCCCCCCCCCCCCCCC, the activity coefficient stood at 0.374 ± 0.034 (373.15 K); 0.374 ± 0.034 (388.15 K); 0.374 ± 0.034 (403.15 K); 0.375 ± 0.034 (418.15 K); 0.377 ± 0.034 (433.15 K).
In the case of `CCCCCCCC` [octane] + CCCCCCCCCCCCCCCCCCC(CCCCCCCCCCCCCCCCCC)CCCCC(CCCCCCCCCCCCCCCCCC)CCCCCCCCCCCCCCCCCC, the activity coefficient reads like this: (373.15 K) 0.38 ± 0.034; (388.15 K) 0.381 ± 0.034; (403.15 K) 0.382 ± 0.034; (418.15 K) 0.384 ± 0.034; (433.15 K) 0.386 ± 0.034.
For `CCCCC` [pentane] + CCCCCCCCCCCCCCCCCCC(CCCCCCCCCCCCCCCCCC)CCCCC(CCCCCCCCCCCCCCCCCC)CCCCCCCCCCCCCCCCCC, in that order: 0.336 ± 0.035, 0.338 ± 0.035, 0.341 ± 0.035, 0.345 ± 0.035 and 0.349 ± 0.035.
Take `CCCCCc1ccccc1` [pentylbenzene] + CCCCCCCCCCCCCCCCCCC(CCCCCCCCCCCCCCCCCC)CCCCC(CCCCCCCCCCCCCCCCCC)CCCCCCCCCCCCCCCCCC: the activity coefficient was determined as 0.378 ± 0.034 (373.15 K); 0.385 ± 0.034 (388.15 K); 0.381 ± 0.034 (403.15 K); 0.38 ± 0.034 (418.15 K); 0.376 ± 0.034 (433.15 K).
Consider `CCCc1ccccc1` [propylbenzene] + CCCCCCCCCCCCCCCCCCC(CCCCCCCCCCCCCCCCCC)CCCCC(CCCCCCCCCCCCCCCCCC)CCCCCCCCCCCCCCCCCC, for which the activity coefficient worked out at 0.336 ± 0.035 (373.15 K); 0.339 ± 0.035 (388.15 K); 0.336 ± 0.035 (403.15 K); 0.331 ± 0.035 (418.15 K); 0.33 ± 0.035 (433.15 K).
